Test results from patent US20250145596A1, “HETEROCYCLIC GLP-1 AGONISTS” (Gasherbrum Bio, Inc., priority 2022, published 2025).

Target: T1, GLP-1 Receptor (Homo sapiens, UniProt P43220)
T1 construct: host or cells: HEK293/CRE-Luc
Test: GLP-1R agonist cAMP stimulation assay
Format: cell-based
Settings: HEK293/CRE-Luc cell line stably expressing the GLP-1 Receptor; 30 min at 37° C.; cAMP dynamic 2 Kit
Method: Activation of GLP-1 receptor is known to stimulate cyclic AMP (cAMP) production in cells which indicates primary coupling to the Gas subunit of the G protein heterotrimeric complex.
To optimize functional activity directed toward Gas coupling, a HEK293/CRE-Luc cell line developed by HDB stably expressing the GLP-1 Receptor was used. 200× concentration of compound working solutions were prepared (Agilent Technologies Bravo) with ½ log serial dilution in 384-well Echo LDV plate (Labcyte, Cat #LP-0200). 50 nL/well 200× concentration of compound working solutions were moved to 384-well white low volume plate (Greiner, Cat #784075) using Labcyte ECHO550. 1×10^5 cells/mL HEK293/GLPlR/CRE-LUC (HD Biosciences) cell suspensions prepared with assay buffer [DPBS containing 0.5 mM IBMX (Sigma, Cat #15879) and 0.1% BSA (GENVIEW, Cat #FA016-100g)], 10 μL cell suspensions were added to each well of previous generated assay plate which already contains 50 nL compound at 200× concentration using ThermoFisher Multidrop Combi (1000 cells/well). Seal the plate and incubate at 37° C. with 5% CO2 for 30 min.
After incubation the cAMP assay signal was generated using cAMP dynamic 2 Kit (Cisbio). 5 μL cAMP-d2 working solution was added to each well, followed with 5 μL Anti-cAMP antibody-cryptate working solution added to each well using ThermoFisher Multidrop Combi. Incubate at room temperature for 1 hour protected from light. Read the fluorescence at 665 and 615 nm with Reader PerkinElmer EnVision.
% Activity=100%×(mean RLU of test sample mean RLU of vehicle control)/(mean RLU of MAX control−mean RLU of vehicle control))

T1 sequence (P43220 24-463): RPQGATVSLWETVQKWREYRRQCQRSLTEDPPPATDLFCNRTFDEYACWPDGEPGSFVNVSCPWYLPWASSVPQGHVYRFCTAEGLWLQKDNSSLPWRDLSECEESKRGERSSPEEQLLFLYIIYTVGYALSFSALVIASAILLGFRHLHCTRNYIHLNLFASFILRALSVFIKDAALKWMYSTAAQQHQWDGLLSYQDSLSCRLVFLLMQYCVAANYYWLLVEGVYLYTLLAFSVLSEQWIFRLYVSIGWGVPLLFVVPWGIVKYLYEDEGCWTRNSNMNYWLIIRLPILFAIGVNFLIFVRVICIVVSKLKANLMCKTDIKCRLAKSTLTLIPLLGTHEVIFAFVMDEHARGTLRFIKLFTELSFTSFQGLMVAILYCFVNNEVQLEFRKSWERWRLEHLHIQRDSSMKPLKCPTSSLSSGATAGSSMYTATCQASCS

EC50 [nM]	SMILES
< 1	C[C@]1(c2ccc(Cl)cn2)Oc2cccc(C3CCN(Cc4ncc(-c5nnc(C(F)(F)F)[nH]5)cc4CC4(C#N)CC4)CC3F)c2O1 (single isomer, unassigned) [Example 26]
< 1	N#CC1(Cc2cc(-c3nnc(C(F)(F)F)[nH]3)cnc2CN2CCC(c3ccc(F)c(OCc4ccc(Cl)cc4F)n3)CC2)CC1 [Example 33, 1-((2-((4-(6-((4-chloro-2-fluorobenzyl)oxy)-5-fluoropyridin-2-yl)piperidin-1-yl)methyl)-5-(5-(trifluoromethyl)-4H-1,2,4-triazol-3-yl)pyridin-3-yl)methyl)cyclopropane-1-carbonitrile]
< 1	CC1(c2ccc(C(F)(F)F)cc2Cl)Oc2cccc(C3CCN(Cc4ncc(-c5nnc(C(F)(F)F)[nH]5)cc4CC4(C#N)CC4)CC3)c2O1 (stereo not shown) [Example 9, 1-((2-((4-(2-(2-Chloro-4-(trifluoromethyl)phenyl)-2-methylbenzo[d][1,3]dioxol-4-yl)piperidin-1-yl)methyl)-5-(5-(trifluoromethyl)-4H-1,2,4-triazol-3-yl)pyridin-3-yl)methyl)cyclopropane-1-carbonitrile]
1 to 100	C[C@]1(c2ccc(Cl)cc2F)Oc2cccc(C3CCN(Cc4ncc(C(=O)O)cc4CC4(C#N)CC4)CC3)c2O1 [Example 19, (S)-6-((4-(2-(4-chloro-2-fluorophenyl)-2-methylbenzo[d][1,3]dioxol-4-yl)piperidin-1-yl)methyl)-5-((1-cyanocyclopropyl)methyl)nicotinic acid]
1 to 100	N#CC1(Cc2cc(-c3nnc(C(F)(F)F)[nH]3)cnc2CN2CC=C(c3ccc(F)c(OCc4ccc(Cl)cc4F)c3)CC2)CC1 [Example 48, 1-({2-[(4-{3-[(4-chloro-2-fluorophenyl)methoxy]-4-fluorophenyl}-1,2,3,6-tetrahydropyridin-1-yl)methyl]-5-[5-(trifluoromethyl)-4H-1,2,4-triazol-3-yl]pyridin-3-yl}methyl)cyclopropane-1-carbonitrile]
1 to 100	Cc1nc(-c2nnc(C(F)(F)F)[nH]2)cnc1CN1CCC(c2cccc3c2O[C@@](C)(c2ccc(Cl)cc2F)O3)CC1 [Example 52, 2-({4-[(2S)-2-(4-chloro-2-fluorophenyl)-2-methyl-1,3-benzodioxol-4-yl]piperidin-1-yl}methyl)-3-methyl-5-[5-(trifluoromethyl)-4H-1,2,4-triazol-3-yl]pyrazine]
< 1	C[C@]1(c2ccc(Cl)cc2F)Oc2cccc(C3CCN(Cc4ncc(-c5nnc(C(F)(F)F)[nH]5)cc4CC4(C#N)CC4)CC3F)c2O1 (single isomer, unassigned) [Example 27]
< 1	N#CC1(Cc2cc(-c3nnc(C(F)(F)F)[nH]3)cnc2CN2CCC(c3cccc(OCc4ccc(Cl)cc4F)n3)CC2)CC1 [Example 32, 1-({2-[(4-{6-[(4-chloro-2-fluorophenyl)methoxy]pyridin-2-yl}piperidin-1-yl)methyl]-5-[5-(trifluoromethyl)-4H-1,2,4-triazol-3-yl]pyridin-3-yl}methyl)cyclopropane-1-carbonitrile]
< 1	CC1(c2ccc(Cl)c(F)c2)Oc2cccc(C3CCN(Cc4ncc(-c5nnc(C(F)(F)F)[nH]5)cc4CC4(C#N)CC4)CC3)c2O1 (stereo not shown) [Example 10, 1-{[2-({4-[2-(4-Chloro-3-fluorophenyl)-2-methyl-2H-1,3-benzodioxol-4-yl]piperidin-1-yl}methyl)-5-[5-(trifluoromethyl)-4H-1,2,4-triazol-3-yl]pyridin-3-yl]methyl}cyclopropane-1-carbonitrile]
< 1	C[C@H]1CN(c2ccc(F)c(OCc3ccc(Cl)cc3F)c2)CCN1Cc1ncc(-c2nnc(C(F)(F)F)[nH]2)cc1CC1(C#N)CC1 [Example 43, 1-[(2-{[(2S)-4-{3-[(4-chloro-2-fluorophenyl)methoxy]-4-fluorophenyl}-2-methylpiperazin-1-yl]methyl}-5-[5-(trifluoromethyl)-4H-1,2,4-triazol-3-yl]pyridin-3-yl)methyl]cyclopropane-1-carbonitrile]
1 to 100	CN1CCC(Cc2cc(-c3nnc(C(F)(F)F)[nH]3)cnc2CN2CCC(c3cccc4c3O[C@@](C)(c3ccc(Cl)cc3F)O4)CC2)C1=O (stereo partly shown) [Example 92]
< 1	C[C@]1(c2ccc(Cl)cc2F)Oc2c(F)ccc(C3CCN(Cc4ncc(-c5nnc(C(F)(F)F)[nH]5)cc4CC4(C#N)CC4)CC3F)c2O1 (single isomer, unassigned) [Example 30]
1 to 100	CS(=O)(=O)Cc1cc(-c2nnc(C(F)(F)F)[nH]2)cnc1CN1CCC(c2cccc(OCc3ccc(Cl)cc3F)n2)CC1 [Example 57, 2-[(4-{6-[(4-chloro-2-fluorophenyl)methoxy]pyridin-2-yl}piperidin-1-yl)methyl]-3-(methanesulfonylmethyl)-5-[5-(trifluoromethyl)-4H-1,2,4-triazol-3-yl]pyridine]
< 1	C[C@]1(c2ccc(Cl)cn2)Oc2cccc(C3CCN(Cc4ncc(-c5noc(=O)[nH]5)cc4CC4(C#N)CC4)CC3)c2O1 [Example 77]
1 to 100	C[C@]1(c2ccc(Cl)cc2F)Oc2cccc(C3CCN(Cc4ncc(CCC(=O)O)cc4CC4(C#N)CC4)CC3)c2O1 [Example 21, (S)-3-(6-((4-(2-(4-chloro-2-fluorophenyl)-2-methylbenzo[d][1,3]dioxol-4-yl)piperidin-1-yl)methyl)-5-((1-cyanocyclopropyl)methyl)pyridin-3-yl)propanoic acid]
< 1	N#CC1(Cc2cc(-c3nnc(C(F)(F)F)[nH]3)cnc2CN2CCC(c3ccnc(OCc4ccc(Cl)cc4F)n3)CC2)CC1 [Example 34, 1-({2-[(4-{2-[(4-chloro-2-fluorophenyl)methoxy]pyrimidin-4-yl}piperidin-1-yl)methyl]-5-[5-(trifluoromethyl)-4H-1,2,4-triazol-3-yl]pyridin-3-yl}methyl)cyclopropane-1-carbonitrile]
< 1	CS(=O)(=O)Cc1cc(-c2nnc(C(F)(F)F)[nH]2)cnc1CN1CCC(c2ccc(F)c(OCc3ccc(Cl)cc3F)n2)CC1 [Example 61, 2-[(4-{6-[(4-chloro-2-fluorophenyl)methoxy]-5-fluoropyridin-2-yl}piperidin-1-yl)methyl]-3-(methanesulfonylmethyl)-5-[5-(trifluoromethyl)-4H-1,2,4-triazol-3-yl]pyridine]
> 100	Cc1nc(-c2cnc(CN3CCC(c4cccc5c4OC(C)(c4ccc(Cl)cc4F)O5)CC3)c(C)c2)no1 (stereo not shown) [Example 97]
< 1	C[C@]1(c2ccc(Cl)cn2)Oc2cccc(C3CCN(Cc4ncc(-c5nnc(C(F)(F)F)[nH]5)cc4CC4(C#N)CC4)CC3F)c2O1 (single isomer, unassigned) [Example 25]
< 1	CC1(c2ccc(Cl)cc2F)Oc2ccc(F)c(C3CCN(Cc4ncc(-c5nnc(C(F)(F)F)[nH]5)cc4CC4(C#N)CC4)CC3)c2O1 (stereo not shown) [Example 15, 1-{[2-({4-[2-(4-Chloro-2-fluorophenyl)-5-fluoro-2-methyl-2H-1,3-benzodioxol-4-yl]piperidin-1-yl}methyl)-5-[5-(trifluoromethyl)-4H-1,2,4-triazol-3-yl]pyridin-3-yl]methyl}cyclopropane-1-carbonitrile]
< 1	CC1(c2ccc(F)cc2Cl)Oc2cccc(C3CCN(Cc4ncc(-c5nnc(C(F)(F)F)[nH]5)cc4CC4(C#N)CC4)CC3)c2O1 (stereo not shown) [Example 4, 1-{[2-({4-[2-(2-chloro-4-fluorophenyl)-2-methyl-2H-1,3-benzodioxol-4-yl]piperidin-1-yl}methyl)-5-[5-(trifluoromethyl)-4H-1,2,4-triazol-3-yl]pyridin-3-yl]methyl}cyclopropane-1-carbonitrile]
< 1	Cc1ccc(C2(C)Oc3cccc(C4CCN(Cc5ncc(-c6nnc(C(F)(F)F)[nH]6)cc5CC5(C#N)CC5)CC4)c3O2)c(Cl)c1 (stereo not shown) [Example 6, 1-((2-((4-(2-(2-Chloro-4-methylphenyl)-2-methylbenzo[d][1,3]dioxol-4-yl)piperidin-1-yl)methyl)-5-(5-(trifluoromethyl)-4H-1,2,4-triazol-3-yl)pyridin-3-yl)methyl)cyclopropane-1-carbonitrile]
1 to 100	CS(=O)(=O)Cc1cc(-c2nnc(C(F)(F)F)[nH]2)cnc1CN1CCC(Oc2cccc(Cc3ccc(Cl)cc3F)n2)CC1 [Example 87]
< 1	Cc1ccc(C2(C)Oc3cccc(C4=CCN(Cc5ncc(-c6nnc(C(F)(F)F)[nH]6)cc5CC5(C#N)CC5)CC4)c3O2)c(Cl)c1 (stereo not shown) [Example 65, 1-((2-((4-(2-(2-chloro-4-methylphenyl)-2-methylbenzo[d][1,3]dioxol-4-yl)-3,6-dihydropyridin-1(2H)-yl)methyl)-5-(5-(trifluoromethyl)-4H-1,2,4-triazol-3-yl)pyridin-3-yl)methyl)cyclopropane-1-carbonitrile]
< 1	CC1(c2ccc(Cl)cc2Cl)Oc2cccc(C3CCN(Cc4ncc(-c5nnc(C(F)(F)F)[nH]5)cc4CC4(C#N)CC4)CC3)c2O1 (stereo not shown) [Example 1, 1-{[2-({4-[2-(2,4-dichlorophenyl)-2-methyl-2H-1,3-benzodioxol-4-yl]piperidin-1-yl}methyl)-5-[5-(trifluoromethyl)-4H-1,2,4-triazol-3-yl]pyridin-3-yl]methyl}cyclopropane-1-carbonitrile]
